# Experimental data as given in patent US10183952B2, “Thienopyrroles as histone demethylase inhibitors” (ISTITUTO EUROPEO DI ONCOLOGIA S.R.L., priority 2014, dated 2019).
# pIC50: −log10 of the molar value. Structures can show the parent of a compound that is named as a salt.
# Columns and labels:
# [1] = test system: human leukemia MV4-11 cells; test: Cell growth, CellTiter-Fluor Cell Viability Assay, MV4-11; format: cell-based; conditions: 48 h incubation, read-out: IC50 against human leukemia MV4-11 cells
# Text: (§1) The CellTiter-Fluor™ Cell Viability Assay measures the conserved and constitutive protease activity within live cells and therefore acts as a marker for cell viability.
# (§2) CellTiter-Flor® (Promega) is as a nonlytic, single-reagent-addition fluorescence assay that measures the relative number of living cells in a culture population after experimental manipulation. The CellTiter-Fluor™ Cell Viability Assay measures the conserved and constitutive protease activity within live cells and therefore acts as a marker for cell viability.
# (§3) Human leukemia MV4-11 cells, (obtained from the Deutsche Sammlung von Mikroorganismen und Zellkulturen, ACC 102) or NB4 cells, (obtained from the Deutsche Sammlung von Mikroorganismen und Zellkulturen) in exponential growth, were incubated for 48 h with different concentrations of the inhibitors. After 48 h a volume of CellTiter-Fluor® Reagent equal to one fifth of volume of cell culture medium was added. The content was mixed and incubates for at least 90 min at 37° C. degree to obtain a stable signal. The fluorescence was recorded using an excitation wavelength of 360 nm and an emission at 535 nm. The IC50 was calculated using GraphPad Software.
# human leukemia NB4 cells = test: Cell growth, CellTiter-Fluor Cell Viability Assay, NB4; format: cell-based; conditions: NB-4, 48 h incubation, read-out: IC50 against human leukemia NB4 cells
# Text: as §1, §2, §3
# [2] = target: human recombinant KDM1A/CoREST protein (Homo sapiens, UniProt O60341); test: Assay of enzyme inhibition of KDM1A (LSD1), TR-FRET
# Experimental: The intensity of the light emission is proportional to the level of biotinylated reaction product. The complex of human recombinant KDM1A/CoREST protein was produced in E. coli as separate proteins and co-purified as previously described.
# Demethylase reaction was started by the addition of 50 nM histone H3K4 monomethylated.
# The resulting mixture was incubated in the dark for 1 h at RT.
SMILES,pIC50 [1],pIC50 (human leukemia NB4 cells),pIC50 [2]
"Cn1c(C(=O)Nc2ccccc2CCc2ccc(OC3CCNCC3)cc2)cc2sccc21 [Example 61, 4-Methyl-N-[2-[2-[4-(4-piperidyloxy)phenyl]ethyl]phenyl]thieno[3,2-b]pyrrole-5-carboxamide hydrochloride]",> 5.00,> 4.70,> 5.00
"CCn1c(C(=O)Nc2cccc(COC)c2COc2ccc(OC[C@@H]3CCNC3)cc2)cc2sccc21 [Example 53, 4-Ethyl-N-[3-(methoxymethyl)-2-[[4-[[(3R)-pyrrolidin-3-yl]methoxy]phenoxy]methyl]phenyl]thieno[3,2-b]pyrrole-5-carboxamide; trifluoroacetic acid]",> 5.00,> 4.70,> 5.00
"CN1CCC(Oc2ccc(OCc3cccc(NC(=O)c4cc5sccc5n4C)c3)cc2)CC1 [Example 15, 4-methyl-N-[3-[[4-[(1-methyl-4-piperidyl)oxy]phenoxy]methyl]phenyl]thieno[3,2-b]pyrrole-5-carboxamide]",> 5.00,> 4.70,> 5.00
"CCn1c(C(=O)Nc2ccccc2COc2ccc(OC3CCNCC3)cc2)cc2sccc21 [Example 8, 4-ethyl-N-[2-[[4-(4-piperidyloxy)phenoxy]methyl]phenyl]thieno[3,2-b]pyrrole-5-carboxamide]",> 5.00,> 4.70,> 5.00
"Cn1c(C(=O)Nc2cccc(OCc3ccncc3)c2)cc2sccc21 [Example 21, 4-methyl-N-[3-(4-pyridylmethoxy)phenyl]thieno[3,2-b]pyrrole-5-carboxamide]",> 5.00,> 4.70,> 5.00
"Cn1c(C(=O)Nc2ccccc2COc2ccc(OCC3CCNCC3)cc2)cc2sccc21 [Example 2, 4-methyl-N-[2-[[4-(4-piperidylmethoxy)phenoxy]methyl]phenyl]thieno-[3,2-b]pyrrole-5-carboxamide]",> 5.00,> 4.70,> 5.00
"CCN1CCC(Oc2ccc(OCc3ccccc3NC(=O)c3cc4sccc4n3C)cc2)CC1 [Example 3, N-[2-[[4-[(1-ethyl-4-piperidyl)oxy]phenoxy]methyl]phenyl]-4-methyl-thieno[3,2-b]pyrrole-5-carboxamide]",> 5.00,> 4.70,> 5.00
"CC(C)OCc1cccc(NC(=O)c2cc3sccc3n2C)c1COc1ccc(OC2CCNCC2)cc1 [Example 51, N-[3-(Isopropoxymethyl)-2-[[4-(4-piperidyloxy)phenoxy]methyl]phenyl]-4-methyl-thieno[3,2-b]pyrrole-5-carboxamide]",> 5.00,> 4.70,> 5.00
"CN1CCN(Cc2ccc(OCc3ccccc3NC(=O)c3cc4sccc4n3C)cc2)CC1 [Example 20, 4-methyl-N-[2-[[4-[(4-methylpiperazin-1-yl)methyl]phenoxy]methyl]phenyl]thieno[3,2-b]pyrrole-5-carboxamide]",> 5.00,> 4.70,> 5.00
"Cn1c(C(=O)Nc2ccccc2COc2ccc(OC3CCNCC3)cc2)cc2sccc21 [Example 1, 4-Methyl-N-[2-[[4-(4-piperidyloxy)phenoxy]methyl]phenyl]thieno[3,2-b]pyrrole-5-carboxamide]",> 5.00,> 4.70,> 5.00
"CCOCc1cccc(NC(=O)c2cc3sccc3n2C)c1COc1ccc(OC[C@@H]2CCNC2)cc1 [Example 52, N-[3-(Ethoxymethyl)-2-[[4-[[(3R)-pyrrolidin-3-yl]methoxy]phenoxy]methyl]phenyl]-4-methyl-thieno[3,2-b]pyrrole-5-carboxamide hydrochloride]",> 5.00,> 4.70,> 5.00
"COCc1cccc(NC(=O)c2cc3sccc3n2C)c1COc1ccc(OC[C@H]2CCNC2)cc1 [Example 49, N-[3-(Methoxymethyl)-2-[[4-[[(3S)-pyrrolidin-3-yl]methoxy]phenoxy]methyl]phenyl]-4-methyl-thieno[3,2-b]pyrrole-5-carboxamide hydrochloride]",> 5.00,> 4.70,> 5.00
